System: HIV-infected subjects
Assay: Safety and tolerability (TEAEs, ECG, laboratory) after repeated oral administration, phase 2a study
Assay type: in vivo, human
Description: Participants were assigned to one of eight groups; each group (with one exception) included eight subjects receiving either ABX464 (n = 6) or the corresponding placebo (n = 2) according to a randomization code. […] In the present study with HIV-infected subjects, the first dose administered was 25 mg, given once or 3 times a day over a 2- to 3-week period. This initial dose was therefore considered safe for assessment of the safety and tolerability of ABX464 after repeated oral administrations in subjects infected by HIV and determination of the potential effect on the HIV viral load.
The final dosing protocol for each of the eight groups was as follows: group 1, 25 mg every 3 days for 2 to 3 weeks under fasted conditions; group 2, 25 mg once a day (q.d.) for 2 to 3 weeks under fasted conditions; group 3, 50 mg once a day for 2 to 3 weeks under fasted conditions; group 4, 50 mg 3 times a day (t.i.d.) for 4 weeks under fed conditions; group 5, 75 mg once a day for 2 weeks under fed conditions; group 6, 100 mg once a day for 2 to 3 weeks under fasted conditions; group 7, 150 mg every 3 days for 2 to 3 weeks under fed conditions; and group 8, 150 mg once a day for 2 weeks under fed conditions. Per the study protocol, the treatment period was defined as 2 weeks. […] The decision to proceed to the next highest dose was determined by the data and safety monitoring board after review of the laboratory safety data, vital signs, ECGs, and adverse event reports from the group receiving the current dose after 2 weeks of treatment.
Subjects were hospitalized from the day prior to the first dose to at least the morning of day 2. They were orally dosed with 25-mg capsules of ABX464 with 240 ml water under fed or fasted conditions. According to the group, subjects were dosed with 1, 2, 3, 4, or 6 capsules to deliver 25 mg, 50 mg, 75 mg, 100 mg, or 150 mg product, respectively, or the same number of placebo capsules.
Safety assessments and laboratory tests were carried out according to the schedules described in Table S4 for groups dosed every day, every 3 days, and 3 times a day. Follow-up visits were scheduled for 7 days after the last dose and subsequently once every week in order to assess the elimination of the main ABX464 metabolite and to assess the viral load. Follow-up visits were terminated when the virus load was within 0.5 log of the baseline value or after 3 follow-up visits, whichever came first. Prior to the statistical analyses, AEs were coded using the Medical Dictionary for Regulatory Activities (MedDRA dictionary; last available version) in order to be tabulated by system organ class (SOC) and preferred term (PT). The AEs were analyzed according to the treatment emergence phase from the first study drug administration on day 1 up to 48 h after the last study drug administration. The number and percentage of subjects with at least one TEAE were tabulated by SOC and PT for each group and dose. The number of occurrences of TEAEs was also analyzed in the same way by SOC and PT for each group and dose, by grade of severity for each group and dose, and by level of causality to the study drug for each group and dose.

[1] = Group 5 (n = 6), 75 mg q.d., fed, Mild
[2] = Group 5 (n = 6), 75 mg q.d., fed, Moderate
[3] = Group 6 (n = 6), 100 mg q.d., fasted, Mild
[4] = Group 6 (n = 6), 100 mg q.d., fasted, Moderate
[5] = Group 7 (n = 6), 150 mg every 3 days, fed, Mild

## FC(F)(F)Oc1ccc(Nc2ccc3cccc(Cl)c3n2)cc1 [ABX464]
[1]
  Subjects experiencing at least one TEAE: Arthralgia: 0 (0.0) No. (%)
  Subjects experiencing at least one TEAE: Back pain: 0 (0.0) No. (%)
  Subjects experiencing at least one TEAE: Diarrhea: 1 (16.7) No. (%)
  Subjects experiencing at least one TEAE: Flank pain: 0 (0.0) No. (%)
  Subjects experiencing at least one TEAE: Gastrointestinal disorders: 5 (83.3) No. (%)
  Subjects experiencing at least one TEAE: Headache: 5 (83.3) No. (%)
  Subjects experiencing at least one TEAE: Injury, poisoning, and procedural complications: 0 (0.0) No. (%)
  Subjects experiencing at least one TEAE: Musculoskeletal and connective tissue disorders: 0 (0.0) No. (%)
  Subjects experiencing at least one TEAE: Nausea: 3 (50.0) No. (%)
  Subjects experiencing at least one TEAE: Neck pain: 0 (0.0) No. (%)
  Subjects experiencing at least one TEAE: Nervous system disorders: 5 (83.3) No. (%)
  Subjects experiencing at least one TEAE: Pain in extremity: 0 (0.0) No. (%)
  Subjects experiencing at least one TEAE: Sciatica, back pain: 0 (0.0) No. (%)
  Subjects experiencing at least one TEAE: Skin abrasion: 0 (0.0) No. (%)
  Subjects experiencing at least one TEAE: Total: 6 (100.0) No. (%)
  Subjects experiencing at least one TEAE: Upper abdominal pain: 0 (0.0) No. (%)
  Subjects experiencing at least one TEAE: Vomiting: 4 (66.7) No. (%)
[2]
  Subjects experiencing at least one TEAE: Abdominal pain: 0 (0.0) No. (%)
  Subjects experiencing at least one TEAE: Arthralgia: 0 (0.0) No. (%)
  Subjects experiencing at least one TEAE: Back pain: 0 (0.0) No. (%)
  Subjects experiencing at least one TEAE: Diarrhea: 0 (0.0) No. (%)
  Subjects experiencing at least one TEAE: Flank pain: 0 (0.0) No. (%)
  Subjects experiencing at least one TEAE: Gastrointestinal disorders: 1 (16.7) No. (%)
  Subjects experiencing at least one TEAE: Headache: 0 (0.0) No. (%)
  Subjects experiencing at least one TEAE: Injury, poisoning, and procedural complications: 0 (0.0) No. (%)
  Subjects experiencing at least one TEAE: Musculoskeletal and connective tissue disorders: 0 (0.0) No. (%)
  Subjects experiencing at least one TEAE: Nausea: 1 (16.7) No. (%)
  Subjects experiencing at least one TEAE: Neck pain: 0 (0.0) No. (%)
  Subjects experiencing at least one TEAE: Nervous system disorders: 0 (0.0) No. (%)
  Subjects experiencing at least one TEAE: Pain in extremity: 0 (0.0) No. (%)
  Subjects experiencing at least one TEAE: Sciatica, back pain: 0 (0.0) No. (%)
  Subjects experiencing at least one TEAE: Skin abrasion: 0 (0.0) No. (%)
  Subjects experiencing at least one TEAE: Total: 1 (16.7) No. (%)
  Subjects experiencing at least one TEAE: Upper abdominal pain: 0 (0.0) No. (%)
  Subjects experiencing at least one TEAE: Vomiting: 0 (0.0) No. (%)
[3]
  Subjects experiencing at least one TEAE: Abdominal pain: 0 (0.0) No. (%)
  Subjects experiencing at least one TEAE: Arthralgia: 0 (0.0) No. (%)
  Subjects experiencing at least one TEAE: Back pain: 0 (0.0) No. (%)
  Subjects experiencing at least one TEAE: Diarrhea: 0 (0.0) No. (%)
  Subjects experiencing at least one TEAE: Flank pain: 0 (0.0) No. (%)
  Subjects experiencing at least one TEAE: Gastrointestinal disorders: 2 (33.3) No. (%)
  Subjects experiencing at least one TEAE: Headache: 5 (83.3) No. (%)
  Subjects experiencing at least one TEAE: Injury, poisoning, and procedural complications: 0 (0.0) No. (%)
  Subjects experiencing at least one TEAE: Musculoskeletal and connective tissue disorders: 0 (0.0) No. (%)
  Subjects experiencing at least one TEAE: Nausea: 0 (0.0) No. (%)
  Subjects experiencing at least one TEAE: Neck pain: 0 (0.0) No. (%)
  Subjects experiencing at least one TEAE: Nervous system disorders: 5 (83.3) No. (%)
  Subjects experiencing at least one TEAE: Pain in extremity: 0 (0.0) No. (%)
  Subjects experiencing at least one TEAE: Sciatica, back pain: 0 (0.0) No. (%)
  Subjects experiencing at least one TEAE: Skin abrasion: 0 (0.0) No. (%)
  Subjects experiencing at least one TEAE: Total: 6 (100.0) No. (%)
  Subjects experiencing at least one TEAE: Upper abdominal pain: 2 (33.3) No. (%)
  Subjects experiencing at least one TEAE: Vomiting: 0 (0.0) No. (%)
[4]
  Subjects experiencing at least one TEAE: Abdominal pain: 0 (0.0) No. (%)
  Subjects experiencing at least one TEAE: Arthralgia: 0 (0.0) No. (%)
  Subjects experiencing at least one TEAE: Back pain: 0 (0.0) No. (%)
  Subjects experiencing at least one TEAE: Diarrhea: 0 (0.0) No. (%)
  Subjects experiencing at least one TEAE: Flank pain: 0 (0.0) No. (%)
  Subjects experiencing at least one TEAE: Gastrointestinal disorders: 1 (16.7) No. (%)
  Subjects experiencing at least one TEAE: Headache: 0 (0.0) No. (%)
  Subjects experiencing at least one TEAE: Injury, poisoning, and procedural complications: 0 (0.0) No. (%)
  Subjects experiencing at least one TEAE: Musculoskeletal and connective tissue disorders: 0 (0.0) No. (%)
  Subjects experiencing at least one TEAE: Nausea: 0 (0.0) No. (%)
  Subjects experiencing at least one TEAE: Neck pain: 0 (0.0) No. (%)
  Subjects experiencing at least one TEAE: Nervous system disorders: 0 (0.0) No. (%)
  Subjects experiencing at least one TEAE: Pain in extremity: 0 (0.0) No. (%)
  Subjects experiencing at least one TEAE: Sciatica, back pain: 0 (0.0) No. (%)
  Subjects experiencing at least one TEAE: Skin abrasion: 0 (0.0) No. (%)
  Subjects experiencing at least one TEAE: Total: 3 (50.0) No. (%)
  Subjects experiencing at least one TEAE: Upper abdominal pain: 1 (16.7) No. (%)
  Subjects experiencing at least one TEAE: Vomiting: 0 (0.0) No. (%)
[5]
  Subjects experiencing at least one TEAE: Abdominal pain: 0 (0.0) No. (%)
  Subjects experiencing at least one TEAE: Arthralgia: 1 (16.7) No. (%)
  Subjects experiencing at least one TEAE: Back pain: 0 (0.0) No. (%)
  Subjects experiencing at least one TEAE: Diarrhea: 0 (0.0) No. (%)

— publication PMC5487684, “Safety, Pharmacokinetics, and Antiviral Activity of a Novel HIV Antiviral, ABX464, in Treatment-Naive HIV-Infected Subjects in a Phase 2 Randomized, Controlled Study” (Antimicrobial Agents and Chemotherapy, 2017)
